{"source": "patent US5869271A", "about": "“G-beta-gamma regulated phosphatidylinositol-3' kinase” (Onyx Pharmaceuticals, priority 1997, dated 1999)", "key": {"[1]": {"target": "T1, PI3K activity in α-(EE)-p101 immunoprecipitates from U937 cells (Homo sapiens, UniProt P48736)", "T1 construct": "U937 cells (human) contain an endogenous PI3K catalytic subunit; expressed in transfected cells; host or cells: U937 (p101 transfected, catalytic subunit endogenous)", "T1 sequence (P48736 whole entry)": "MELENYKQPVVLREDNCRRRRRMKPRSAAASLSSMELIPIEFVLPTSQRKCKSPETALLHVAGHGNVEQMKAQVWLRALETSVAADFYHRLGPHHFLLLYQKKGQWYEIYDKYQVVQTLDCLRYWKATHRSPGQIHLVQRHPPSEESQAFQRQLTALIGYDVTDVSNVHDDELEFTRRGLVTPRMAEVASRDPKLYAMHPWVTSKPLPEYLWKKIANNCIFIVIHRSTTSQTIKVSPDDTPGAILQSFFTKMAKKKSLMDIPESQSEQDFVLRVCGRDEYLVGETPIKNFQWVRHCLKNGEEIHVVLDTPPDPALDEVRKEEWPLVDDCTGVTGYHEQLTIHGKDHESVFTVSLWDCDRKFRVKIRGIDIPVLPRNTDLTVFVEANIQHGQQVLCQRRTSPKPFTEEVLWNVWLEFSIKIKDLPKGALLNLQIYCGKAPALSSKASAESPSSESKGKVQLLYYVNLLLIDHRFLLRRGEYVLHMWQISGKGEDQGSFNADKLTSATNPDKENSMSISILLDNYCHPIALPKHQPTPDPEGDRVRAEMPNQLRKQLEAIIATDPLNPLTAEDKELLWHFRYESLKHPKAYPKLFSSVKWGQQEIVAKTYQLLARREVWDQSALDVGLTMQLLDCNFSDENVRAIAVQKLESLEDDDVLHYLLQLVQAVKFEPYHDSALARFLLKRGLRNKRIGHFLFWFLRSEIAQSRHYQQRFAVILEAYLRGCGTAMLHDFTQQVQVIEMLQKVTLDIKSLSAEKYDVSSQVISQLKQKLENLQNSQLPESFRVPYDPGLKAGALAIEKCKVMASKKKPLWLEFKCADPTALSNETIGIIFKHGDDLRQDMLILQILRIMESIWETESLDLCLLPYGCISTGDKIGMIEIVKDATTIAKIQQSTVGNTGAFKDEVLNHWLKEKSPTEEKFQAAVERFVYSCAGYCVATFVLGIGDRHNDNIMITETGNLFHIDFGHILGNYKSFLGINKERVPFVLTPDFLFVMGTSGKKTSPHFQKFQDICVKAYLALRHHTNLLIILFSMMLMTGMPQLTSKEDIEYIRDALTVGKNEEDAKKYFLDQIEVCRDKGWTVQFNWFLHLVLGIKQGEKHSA", "T1 sequence (as listed by the source partner)": "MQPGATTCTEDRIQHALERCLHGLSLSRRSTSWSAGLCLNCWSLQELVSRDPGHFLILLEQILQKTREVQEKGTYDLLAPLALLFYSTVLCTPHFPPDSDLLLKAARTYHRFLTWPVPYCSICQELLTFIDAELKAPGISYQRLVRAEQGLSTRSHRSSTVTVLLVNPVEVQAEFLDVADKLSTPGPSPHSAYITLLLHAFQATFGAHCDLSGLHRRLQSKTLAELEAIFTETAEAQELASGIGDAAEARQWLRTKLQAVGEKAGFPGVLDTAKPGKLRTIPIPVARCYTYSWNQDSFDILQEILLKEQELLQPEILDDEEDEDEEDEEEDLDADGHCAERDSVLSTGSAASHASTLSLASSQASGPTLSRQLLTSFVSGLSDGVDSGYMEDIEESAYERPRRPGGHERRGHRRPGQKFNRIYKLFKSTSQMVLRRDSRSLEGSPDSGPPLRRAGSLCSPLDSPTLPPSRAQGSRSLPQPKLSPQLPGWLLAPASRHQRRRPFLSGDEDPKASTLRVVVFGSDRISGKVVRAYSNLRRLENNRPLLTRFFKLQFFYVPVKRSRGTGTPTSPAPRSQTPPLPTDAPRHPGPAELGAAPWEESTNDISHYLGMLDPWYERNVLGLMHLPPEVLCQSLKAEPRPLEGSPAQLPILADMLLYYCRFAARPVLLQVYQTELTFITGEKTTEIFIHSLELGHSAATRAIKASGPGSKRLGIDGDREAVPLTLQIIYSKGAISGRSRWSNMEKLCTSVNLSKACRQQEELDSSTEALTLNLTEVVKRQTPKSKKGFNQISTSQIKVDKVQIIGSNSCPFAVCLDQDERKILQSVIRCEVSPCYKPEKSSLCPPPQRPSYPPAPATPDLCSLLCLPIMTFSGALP", "test": "PI3K assay on α-(EE)-p101 immunoprecipitates from transfected U937 cells", "type": "biochemical", "procedure": "U937 cells were transiently transfected with mammalian expression vectors encoding either (EE)120 or (EE)101, co-transfected in combination with mammalian expression vectors encoding myc101, myc120, or an irrelevant control myc fusion protein, as indicated. A total of 40 μg of vector DNA was used. After co-transfection, the cells lysed, precleaned and immunoprecipitated with protein G sepharose covalently cross-linked to α-(EE) monoclonal antibody as described more fully in the Examples herein. The resulting immunoprecipitates were washed and Gβγ-activated (1 μM, final concentration) PI3K activity was assayed. The PI3K activity detected in immunoprecipitates from cells transfected with irrelevant (EE)-tagged protein, either with or without Gβγs was subtracted from the data shown (these were means of 1896 dpm and 2862 dpm in the absence and presence of Gβγs, respectively).\nIf the PI3K assays were performed on immunoprecipitates from U937 cells (see following examples) then the PI3K was immobilized on 10 μl of packed protein G Sepharose beads in an ice-cold buffer defined above. 30 μl of a mixture of phospholipids with or without Gβγs and/or Gαs (either GDP-bound or activated) was added to the 5 μl fractions, or 10 μl of beads, and mixed. […]"}, "[2]": {"target": "free p120 PI3K catalytic subunit (Sus scrofa, UniProt O02697)", "sequence (O02697 whole entry)": "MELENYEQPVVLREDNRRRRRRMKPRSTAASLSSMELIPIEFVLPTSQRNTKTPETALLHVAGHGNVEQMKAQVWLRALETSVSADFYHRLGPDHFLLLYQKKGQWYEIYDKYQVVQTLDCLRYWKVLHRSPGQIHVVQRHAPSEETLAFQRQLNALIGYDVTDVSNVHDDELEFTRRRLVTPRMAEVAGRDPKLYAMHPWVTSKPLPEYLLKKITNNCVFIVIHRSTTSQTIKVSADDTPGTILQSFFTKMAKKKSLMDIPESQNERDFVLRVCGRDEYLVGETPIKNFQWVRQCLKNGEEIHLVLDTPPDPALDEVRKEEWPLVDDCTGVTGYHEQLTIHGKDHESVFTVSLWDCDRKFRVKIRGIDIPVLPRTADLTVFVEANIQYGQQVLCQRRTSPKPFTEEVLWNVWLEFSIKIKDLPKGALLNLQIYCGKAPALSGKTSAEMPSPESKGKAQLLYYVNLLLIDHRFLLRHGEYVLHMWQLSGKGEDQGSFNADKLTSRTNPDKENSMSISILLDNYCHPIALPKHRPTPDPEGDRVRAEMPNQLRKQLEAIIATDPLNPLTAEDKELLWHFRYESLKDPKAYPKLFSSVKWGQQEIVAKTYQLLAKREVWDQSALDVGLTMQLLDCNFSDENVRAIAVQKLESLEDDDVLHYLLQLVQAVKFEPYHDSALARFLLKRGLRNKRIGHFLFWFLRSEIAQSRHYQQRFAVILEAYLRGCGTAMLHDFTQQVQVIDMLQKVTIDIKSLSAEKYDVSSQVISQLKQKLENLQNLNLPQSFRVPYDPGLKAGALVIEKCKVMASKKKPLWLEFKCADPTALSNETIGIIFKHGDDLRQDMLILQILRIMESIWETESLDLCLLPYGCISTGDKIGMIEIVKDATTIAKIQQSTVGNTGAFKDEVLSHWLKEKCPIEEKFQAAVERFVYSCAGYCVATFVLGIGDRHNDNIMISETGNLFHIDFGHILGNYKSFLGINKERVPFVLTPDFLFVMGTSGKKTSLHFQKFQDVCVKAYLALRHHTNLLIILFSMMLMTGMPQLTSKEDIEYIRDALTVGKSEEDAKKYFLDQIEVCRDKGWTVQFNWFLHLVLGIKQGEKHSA", "test": "PI3K assay on free recombinant p120 (Sf9-derived)", "type": "biochemical, porcine", "procedure": "Assays contained either 7 nM p101/p120 or 36 nM p120 alone (final concentrations) which were incubated with various reagents; 10 mM NaF and 30 μM AlCl3 (A/F) ; 1 μM Gβγ-subunits (βγ); 2 μM Gα-GDP; 100 nM wortmannin (W) or 50 μM tyrosine phosphorylated peptide (PY) for a total of 15 minutes (at 0° C.) prior to starting the assays by adding [γ^32 P]-ATP; [^32 P]-incorporated into [^32 P]-PtdIns(3,4,5) P3 was quantified. The data shown are means (n=2).\nPurified aliquots of Sf9 -derived or pig neutrophil cytosol-derived PI3K were diluted in ice-cold 0.12M NaCl, 25 mM HEPES, 1 mM EGTA, 1 mM DTT, 1 mg-ml^-1 BSA, 1% betaine, 0.02%, w/v, Tween-20, pH 7.4, 0° C. to an appropriate extent, then 5 μl aliquots were stored on ice until assayed. […] 30 μl of a mixture of phospholipids with or without Gβγs and/or Gαs (either GDP-bound or activated) was added to the 5 μl fractions, or 10 μl of beads, and mixed. After 10 minutes on ice, 5-10 μl of last wash buffer, supplemented with MgCl2 to give a final concentration in the extant assay volume of 3.5 mM, was added and mixed. Six minutes later, 5 μl of last wash buffer was added (to give a final assay volume of 50 μl) containing [^32 ]-ATP (typically 10 μCi assay^-1, Amersham, PB10168) and 3.5 mM MgCl2, tubes were mixed and transferred to a 30° C. water bath. […]"}, "[3]": {"tested_on": "neutrophils", "settings": "cited from earlier work"}, "[4]": {"tested_on": "Gβγ-activated PI3K (PI3Ks A and B; p117/p101 and p120/p101 heterodimers)", "test": "PI3K assay on purified pig neutrophil Gβγ-activated PI3Ks A and B", "type": "biochemical", "settings": "100 nM wortmannin; 5 μM ATP in the assays"}}}
{"smiles": "COC[C@H]1OC(=O)c2coc3c2[C@@]1(C)C1=C(C3=O)[C@@H]2CCC(=O)[C@@]2(C)C[C@H]1OC(C)=O", "note": "[wortmannin]", "values": [{"measurement": "wortmannin sensitivity of PI3K activity in α-(EE)-p101 immunoprecipitates", "setting": "[1]", "value": "wortmannin-sensitive"}, {"measurement": "wortmannin sensitivity of free p120 PI3K activity", "setting": "[2]", "value": "wortmannin-sensitive"}, {"measurement": "fMLP-induced respiratory burst response", "setting": "[3]; Thelen et al., 1994", "value": "prevents"}, {"measurement": "superoxide production in neutrophils", "setting": "[3]", "value": "shutdown of superoxide production"}, {"measurement": "inhibition of PI3K activity by wortmannin", "setting": "[4]", "value": "completely inhibited"}]}
